Results from patent publication US12129244B2, “Modulators of Mas-related G-protein receptor X2 and related products and methods” (Escient Pharmaceuticals, Inc., priority 2022, dated 2024).

target: T1, human MRGPRX2 (Homo sapiens, UniProt Q96LB1); assay: MRGPRX2 activity: IP-One HTRF antagonist assay in CHO cells versus Cortistatin-14; type: cell-based; details: CHO cells stably expressing human MRGPRX2; versus 0.3 uM Cortistatin-14 agonist; IP-1 HTRF
T1 construct: expressed in transfected cells
T1 sequence (Q96LB1 1-330): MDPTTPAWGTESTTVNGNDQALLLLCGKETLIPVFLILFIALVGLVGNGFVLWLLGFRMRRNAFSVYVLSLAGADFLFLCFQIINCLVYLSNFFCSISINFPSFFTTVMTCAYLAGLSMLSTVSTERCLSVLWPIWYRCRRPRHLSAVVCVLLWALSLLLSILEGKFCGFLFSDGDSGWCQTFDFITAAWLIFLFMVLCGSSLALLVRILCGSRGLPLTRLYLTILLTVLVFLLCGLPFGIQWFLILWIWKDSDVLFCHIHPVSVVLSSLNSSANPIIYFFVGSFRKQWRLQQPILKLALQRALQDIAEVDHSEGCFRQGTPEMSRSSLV
Experimental: CHO cells stably transfected to express human MRGPRX2 were maintained in an incubator at 37° C. with 5% CO2 and grown in F12 (HAM) media with 10% fetal bovine serum (FBS), 1% Glutamax, 1% penicillin/streptomycin, 800 μg/mL Geneticin (G418), and 300 μg/mL Hygromycin B.
Cells were plated in a 384-well assay plate at 20,000 cells per well in 12 μL of Opti-MEM and kept in an incubator overnight. On the day of the assay, compounds solubilized at 10 mM in DMSO were added as a 10-point curve (30 uM final top concentration with 1:3 serial dilutions) using a Tecan D300E digital dispenser. Agonists were diluted in assay buffer (final concentrations of 5.7 mM Tris-HCl, 43 mM NaCl, 50 mM LiCl, pH=8) and 2 μL of the agonist Cortistatin-14 (CPC Scientific, catalog CORT-002) are added to each well. Final concentrations of agonists were 0.3 μM Cortistatin. Final concentrations of DMSO were kept consistent across the plate. Plates were incubated in the dark for 1 h at 37° C. and then for 1 h at room temperature. IP-1 standards and HTRF detection reagents were added according to the IP-One-Gq Kit purchased from Cisbio (part number 62IPAPEJ) and incubated in the dark for 1 h at room temperature. The plate was read on a Molecular Devices SpectraMax iD5 plate reader. The HTRF ratio was calculated from the raw data and graphed using GraphPad Prism to calculate an IC50 value for each compound.
The activity ranges are denoted as follows: “+++++” denotes antagonist activity <100 nM; “++++” denotes antagonist activity between 100 and 500 nM; “+++” denotes activity between 501 and 1000 nM; “[…]” denotes activity between 1001 and 2500 nM; and “+” denotes activity >2500 nM

| Structure (SMILES) | IC50 |
| --- | --- |
| O=C(N[C@@H]1CCC[C@H](Nc2cc(C(F)(F)F)nc3ccccc23)C1)c1ccccc1Oc1ccccc1 (racemic) [Example 4-113] | > 2500 nM |
| CN(C)c1cccc(C(=O)N[C@@H]2CCC[C@H](Nc3cc(C(F)(F)F)nc4ccc(Cl)cc34)C2)c1 [Example 4-216] | 100 to 500 nM |
| CCc1ccc(C(=O)N[C@@H]2CCC[C@H](Nc3cc(C(F)(F)F)nc4ccccc34)C2)cc1 [Example 4-18] | 100 to 500 nM |
| O=C(N[C@@H]1CCC[C@H](Nc2cc(C(F)(F)F)nc3ccccc23)C1)C1COCCN1Cc1ccccc1 (mixture of isomers) [Example 4-31] | > 2500 nM |
| O=C(N[C@@H]1CCC[C@H](Nc2cc(C(F)(F)F)nc3ccc(Cl)cc23)C1)c1ccc(N2CC2)cc1 [Example 4-415] | < 100 nM |
| O=C(CCc1ccc(Cl)c(F)c1)N[C@@H]1CCC[C@H](Nc2cc(C(F)(F)F)nc3ccccc23)C1 (racemic) [Example 4-82] | > 2500 nM |
| CCCn1nccc1C(=O)N[C@@H]1CCC[C@H](Nc2cc(C(F)(F)F)nc3ccc(F)cc23)C1 [Example 4-325] | 100 to 500 nM |
| O=C(N[C@@H]1CCC[C@H](Nc2cc(C(F)(F)F)nc3ccc(Cl)cc23)C1)c1cncc2cn[nH]c12 [Example 4-398] | < 100 nM |
| O=C(N[C@@H]1CCC[C@H](Nc2cc(C(F)(F)F)nc3ccc(Cl)cc23)C1)N1CCCC1 [Example 8-3] | < 100 nM |
| CC(C)S(=O)(=O)Nc1cccc(C(=O)N[C@@H]2CCC[C@H](Nc3cc(C(F)(F)F)nc4ccc(F)cc34)C2)c1 [Example 4-297] | < 100 nM |
| O=C(N[C@@H]1CCC[C@H](Nc2cc(C(F)(F)F)nc3ccc(Cl)cc23)C1)c1cccc(Cl)c1 [Example 4-249] | 100 to 500 nM |
| C=CC12CCC(C(=O)N[C@@H]3CCC[C@H](Nc4cc(C(F)(F)F)nc5ccccc45)C3)(CC1)CO2 [Example 4-171] | 501 to 1000 nM |
| CNc1ccc(C(=O)N[C@@H]2CCC[C@H](Nc3cc(C(F)(F)F)nc4ccc(C)cc34)C2)cc1 [Example 4-130] | < 100 nM |
| O=C(N[C@@H]1CCC[C@H](Nc2cc(C(F)(F)F)nc3ccc(Cl)cc23)C1)c1cc(O)cc(O)c1 [Example 4-271] | < 100 nM |
| Cc1c(C(=O)N[C@@H]2CCC[C@H](Nc3cc(C(F)(F)F)nc4ccc(Cl)cc34)C2)ccn1CCF [Example 5-1] | < 100 nM |
| O=C(N[C@@H]1CCC[C@H](Nc2cc(C(F)(F)F)nc3ccc(Cl)cc23)C1)c1ccon1 [Example 4-425] | < 100 nM |
| Cc1ccc2nc(C(F)(F)F)cc(N[C@H]3CCC[C@@H](NC(=O)c4cccc(N(C)C)c4)C3)c2c1 [Example 4-159] | 100 to 500 nM |
| Cc1cn(C)cc1C(=O)N[C@@H]1CCC[C@H](Nc2cc(C(F)(F)F)nc3ccc(Cl)cc23)C1 [Example 4-417] | < 100 nM |
| CC(C)(C)OC(=O)N1CCC[C@@H](n2cc(C(=O)N[C@@H]3CCC[C@H](Nc4cc(C(F)(F)F)nc5ccc(Cl)cc45)C3)cn2)C1 [Example 5-13] | < 100 nM |
| Cc1cc(C(=O)N[C@@H]2CCC[C@H](Nc3cc(C(F)(F)F)nc4ccc(Cl)cc34)C2)co1 [Example 4-419] | < 100 nM |
| O=C(CCc1cc(Br)ccc1F)N[C@@H]1CCC[C@H](Nc2cc(C(F)(F)F)nc3ccccc23)C1 (racemic) [Example 4-74] | > 2500 nM |
| Nc1cnc(Cl)c(C(=O)N[C@@H]2CCC[C@H](Nc3cc(C(F)(F)F)nc4ccc(Cl)cc34)C2)c1 [Example 4-418] | < 100 nM |

Continued, values first:

| IC50 | Structure (SMILES) |
| --- | --- |
| < 100 nM | N#Cc1cc(C(=O)N[C@@H]2CCC[C@H](Nc3cc(C(F)(F)F)nc4ccc(Cl)cc34)C2)c[nH]1 [Example 4-408] |
| < 100 nM | Cc1cn2cc(C(=O)N[C@@H]3CCC[C@H](Nc4cc(C(F)(F)F)nc5ccc(Cl)cc45)C3)ccc2n1 [Example 4-265] |
| < 100 nM | O=C(N[C@@H]1CCC[C@H](Nc2cc(C(F)(F)F)nc3ccc(Cl)cc23)C1)c1ccnc2cn[nH]c12 [Example 4-263] |
| < 100 nM | CS(=O)(=O)Nc1cc(C(=O)N[C@@H]2CCC[C@H](Nc3cc(C(F)(F)F)nc4ccc(Cl)cc34)C2)ccc1F [Example 4-258] |
| < 100 nM | CS(=O)(=O)Nc1cccc(C(=O)N[C@@H]2CCC[C@H](Nc3cc(C(F)(F)F)nc4ccc(F)cc34)C2)c1 [Example 4-302] |
| < 100 nM | CS(=O)(=O)Nc1ccc(C(=O)N[C@@H]2CCC[C@H](Nc3cc(C(F)(F)F)nc4ccc(F)cc34)C2)cc1 [Example 4-317] |
| < 100 nM | Cc1nn(C)cc1C(=O)N[C@@H]1CCC[C@H](Nc2cc(C(F)(F)F)nc3ccc(Cl)cc23)C1 [Example 4-401] |
| < 100 nM | Cc1c(C(=O)N[C@@H]2CCC[C@H](Nc3cc(C(F)(F)F)nc4ccc(Cl)cc34)C2)ccn1CC(F)F [Example 5-5] |
| < 100 nM | Cc1nc2c(s1)CN(C(=O)N[C@@H]1CCC[C@H](Nc3cc(C(F)(F)F)nc4ccc(Cl)cc34)C1)CC2 [Example 46, N-((1R,3S)-3-((6-chloro-2-(trifluoromethyl)quinolin-4-yl)amino)cyclohexyl)-2-methyl-6,7-dihydrothiazolo[5,4-c]pyridine-5(4H)-carboxamide] |
| < 100 nM | O=C(N[C@@H]1CCC[C@H](Nc2cc(C(F)(F)F)nc3ccc(Cl)cc23)C1)c1ccc2nncn2c1 [Example 4-245] |
| < 100 nM | O=C(N[C@@H]1CCC[C@H](Nc2cc(C(F)(F)F)nc3ccc(Cl)cc23)C1)c1cn(C(F)F)nc1Cl [Example 4-406] |
| < 100 nM | Cn1c(C(=O)N[C@@H]2CCC[C@H](Nc3cc(C(F)(F)F)nc4ccc(Cl)cc34)C2)cnc1Cl [Example 4-412] |
| < 100 nM | CC(C#N)c1cccc(C(=O)N[C@@H]2CCC[C@H](Nc3cc(C(F)(F)F)nc4ccc(F)cc34)C2)c1 (stereo partly shown) [Example 4-282] |
| < 100 nM | O=C(N[C@@H]1CCC[C@H](Nc2cc(C(F)(F)F)nc3ccc(Cl)cc23)C1)c1cnn(CCCl)c1 [Example 4-396] |
| < 100 nM | CCc1[nH]ccc1C(=O)N[C@@H]1CCC[C@H](Nc2cc(C(F)(F)F)nc3ccc(Cl)cc23)C1 [Example 4-427] |
| < 100 nM | CCn1ncc(C(=O)N[C@@H]2CCC[C@H](Nc3cc(C(F)(F)F)nc4ccc(Cl)cc34)C2)c1C [Example 4-452] |
| < 100 nM | O=C(N[C@@H]1CCC[C@H](Nc2cc(C(F)(F)F)nc3ccc(Cl)cc23)C1)c1c[nH]cc1C(F)(F)F [Example 4-394] |
| < 100 nM | N#Cc1nn(CCF)cc1C(=O)N[C@@H]1CCC[C@H](Nc2cc(C(F)(F)F)nc3ccc(Cl)cc23)C1 [Example 5-31] |
| < 100 nM | O=C(N[C@@H]1CCC[C@H](Nc2cc(C(F)(F)F)nc3ccc(Cl)cc23)C1)c1cn[nH]c1C1CC1 [Example 4-405] |
| < 100 nM | CN(C)Cc1ccc(C(=O)N[C@@H]2CCC[C@H](Nc3cc(C(F)(F)F)nc4ccc(Cl)cc34)C2)cc1 [Example 4-410] |
| < 100 nM | Cc1nn(CC(F)(F)F)cc1C(=O)N[C@@H]1CCC[C@H](Nc2cc(C(F)(F)F)nc3ccc(Cl)cc23)C1 [Example 4-464] |
| < 100 nM | O=C(N[C@@H]1CCC[C@H](Nc2cc(C(F)(F)F)nc3ccc(Cl)cc23)C1)c1cnn(C2COC2)c1 [Example 4-407] |
| < 100 nM | CC(C)(C)OC(=O)N1CC[C@@H](n2cc(C(=O)N[C@@H]3CCC[C@H](Nc4cc(C(F)(F)F)nc5ccc(Cl)cc45)C3)cn2)C1 [Example 40, tert-butyl (R)-3-(4-(((1R,3S)-3-((6-chloro-2-(trifluoromethyl)quinolin-4-yl)amino)cyclohexyl)carbamoyl)-1H-pyrazol-1-yl)pyrrolidine-1-carboxylate] |
| < 100 nM | CC(C)S(=O)(=O)Nc1cccc(C(=O)N[C@@H]2CCC[C@H](Nc3cc(C(F)(F)F)nc4ccc(Cl)cc34)C2)c1 [Example 4-228] |
| < 100 nM | Cc1cc(C(=O)N[C@@H]2CCC[C@H](Nc3cc(C(F)(F)F)nc4ccc(Cl)cc34)C2)c(C)[nH]1 [Example 4-426] |
| < 100 nM | Cn1cc2c(n1)CCN(C(=O)N[C@@H]1CCC[C@H](Nc3cc(C(F)(F)F)nc4ccc(Cl)cc34)C1)C2 [Example 8-16] |
| < 100 nM | O=C(N[C@@H]1CCC[C@H](Nc2cc(C(F)(F)F)nc3ccc(F)cc23)C1)c1cccc(O)c1 [Example 4-284] |
| < 100 nM | CS(=O)(=O)Nc1ccc(C(=O)N[C@@H]2CCC[C@H](Nc3cc(C(F)(F)F)nc4ccc(Cl)cc34)C2)cc1 [Example 4-240] |
| < 100 nM | Cn1cc(C(=O)N[C@@H]2CCC[C@H](Nc3cc(C(F)(F)F)nc4ccc(Cl)cc34)C2)c(C(F)F)n1 [Example 4-404] |
| < 100 nM | Cn1ccc(C(=O)N[C@@H]2CCC[C@H](Nc3cc(C(F)(F)F)nc4ccc(Cl)cc34)C2)c1 [Example 4-416] |
